Measured values taken from patent publication US9732076B2, “Solid oral dosage formulation of HCV inhibitor in the amorphous state” (Boehringer Ingelheim International GmbH, priority 2013, dated 2017).

Assay: Ames test / genotoxicity of degradation product

C=C[C@@H]1C[C@]1(N)C(=O)O [Compound X]
Ames result / genotoxicity: Ames positive
